The results in this text go back to PubChem BioAssay (NCI).

Molecules are shown by their SMILES. “And” between values parts separate entries of the source, which are not always exact repeats. Equal entries are not always repeated.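 The compound was tested at five concentrations on cells cultured in 96-well plates, with a 48-hour exposure period. Here, GI50 denotes the concentration required for 50% inhibition of growth. TGI is the concentration that stops growth completely.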

Assay in all cases: NCI tumour cell line growth inhibition, 48 h
Assay [1] deals with 786-0 renal.
For assay [2], the system named is A549 NSCLC.
For assay [3], the system named is MALME-3M melanoma.
Assay [4] concerns NCI-H226 lung.
In assay [5] the test system is NCI-H23 lung.
Assay [6] deals with NCI-H460 lung.
The subject of assay [7] is OVCAR-3 ovarian.
For assay [8], the system named is OVCAR-5 ovarian.
The test system of assay [9] is RXF 393 renal.
The subject of assay [10] is SF-268 CNS.

Consider `CN(C)c1ccc(N)cc1`, for which the GI50 is 8.38 µM in [1]; 4.58 µM in [2]; 3.17 µM in assay [3]; 12.4 µM in assay [4]; 3.14 µM in [5]; 3.09 µM in [6]. Besides, the GI50 in assay [7] is 2.14 µM; in assay [8], 13.5 µM; in assay [9], 10.4 µM; in [10], 6.96 µM. Moreover, the TGI came out at 97.5 µM in assay [1]; 52.6 µM in assay [2]; 13.8 µM in assay [3]; 48 µM in assay [4]; 14.1 µM in [5]; 13 µM in [6]. Moreover, the TGI was 6.12 µM in assay [7], 42.6 µM in assay [8], 26 µM in [9] and 32.7 µM in assay [10].
With `Cc1ccccc1N(CCC#N)C1=NN(C(=O)CC(=O)Nc2ccccc2)C(c2ccccc2)C1` (centres undefined), the TGI in assay [1], in assay [2], in assay [3], in assay [4], in [5] and in assay [6] was greater than 100 µM throughout. The TGI in [7], in assay [8], in assay [9] and in assay [10] was greater than 100 µM each time.
For the molecule `COc1cc(OC)c(/C=C/C(=O)c2c(OC)cccc2OC)c(OC)c1`, the GI50 in assay [1] is 0.536 µM; in assay [2] it was 0.907 µM; in [3] it was 0.45 µM; in assay [4], 1.99 µM; in [5], 1.46 µM; in [6] it was 0.393 µM. The GI50 was 0.431 µM in [7], 2.17 µM in [8], 0.561 µM in assay [9] and 1.14 µM in assay [10]. In addition, the TGI in assay [1] was 3.89 µM; in assay [2], greater than 100 µM; in [3] it was greater than 100 µM; in [4], greater than 100 µM; in [5], greater than 27.6 µM; in assay [6], greater than 20.3 µM. In addition, the TGI is greater than 100 µM in assay [8], 2.17 µM in assay [9] and greater than 42.1 µM in [10].
Turning to `O=C(O)CN(c1ccccc1)S(=O)(=O)c1ccccc1[N+](=O)[O-]`, the TGI in assay [1], in assay [2], in [3], in assay [4], in assay [5] and in [6] was greater than 100 µM each time. Further, the TGI in assay [7], in [8], in [9] and in assay [10] was greater than 100 µM each time.
Consider `CCCCCCCCCCCCCC1CCC(CC)N1` (centres undefined), for which the TGI in [1] came to 31.5 µM; in assay [2] it was 36.2 µM; in assay [3], 33.8 µM; in [4] it was 30.2 µM; in [5] it was 32.9 µM; in [6], 18.5 µM. Besides, the TGI was determined as 30.2 µM in assay [7], 30.3 µM in [8], 33 µM in [9] and 22.4 µM in [10].
`Clc1nc(Cl)c2ncn(Cc3cccc(COc4cccc(OCc5cccc(Cn6cnc7c(Cl)nc(Cl)nc76)c5)c4)c3)c2n1`: the GI50 in [1] was 74.8 µM; in [2], greater than 100 µM; in [3], greater than 100 µM; in assay [4], 4.97 µM; in assay [5], 54.5 µM; in assay [6], greater than 100 µM. Also, the GI50 is 7.26 µM in [7], greater than 100 µM in [8], 7.2 µM in assay [9] and greater than 100 µM in assay [10]. Moreover, the TGI in [1] is greater than 100 µM; in assay [2], greater than 100 µM; in assay [3] it was greater than 100 µM; in assay [4], 27.5 µM; in assay [5], greater than 100 µM; in assay [6], greater than 100 µM. For the same molecule, the TGI is 34.7 µM in assay [7], greater than 100 µM in [8], greater than 100 µM in assay [9] and greater than 100 µM in assay [10].
Consider `CC1=C(C)CC2(CCCCC2=O)S(=O)C1` (centres undefined), for which the TGI in [1], in assay [2], in assay [3], in assay [4], in assay [5] and in assay [6] was greater than 100 µM in each case. For the same molecule, the TGI in [7], in assay [8], in assay [9] and in [10] was greater than 100 µM each time.
As for `CCC1(O)C(=O)OCc2c1cc1n(c2=O)Cc2cc3ccc(C=O)cc3nc2-1` (centres undefined), the GI50 in [1] was 0.45 µM; in [2] it was 7.43 µM; in assay [3] it was 13.2 µM; in [4], 1.76 µM; in assay [5], 0.816 µM; in [6] it was 0.301 µM. Also, the GI50 in assay [7] is 5.05 µM; in [8], 10.5 µM; in assay [9] it was 4.92 µM; in assay [10], 0.376 µM. The TGI in assay [1] was 9.18 µM and 4.95 µM; in assay [2] it was 50 µM and 18.8 µM; in [3] it was 50 µM and 41.2 µM; in [4] it was 13.9 µM and 7.4 µM; in [5], 2.71 µM and 16.7 µM; in assay [6], 6.59 µM and 26.4 µM. Also, the TGI was 30.6 µM and 23.4 µM in [7]; 50 µM and 55.2 µM in assay [8]; 20.8 µM and 13.1 µM in assay [9]; 50 µM and 40 µM in assay [10].
Regarding `C=CCCCCCCCCC(=O)NS(=O)(=O)c1ccccc1`, the TGI in [1], in assay [2], in assay [3], in assay [4], in [5] and in assay [6] was greater than 100 µM throughout. In addition, the TGI in assay [7], in assay [8], in assay [9] and in [10] was greater than 100 µM in each case.
With `Nc1ncc(-c2cnn(CCO)c2)c2scc(-c3ccc(NC(=O)Nc4cccc(F)c4)cc3)c12`, the GI50 in assay [1] was 0.45 µM; in assay [2] it was 0.125 µM; in [3], 0.132 µM; in assay [4], 0.162 µM; in [5], 0.211 µM; in assay [6], less than 0.0355 µM. Moreover, the GI50 is 1.16 µM in assay [7], 0.375 µM in assay [8], 0.241 µM in assay [9] and 0.435 µM in [10]. In addition, the TGI amounted to 6.69 µM in assay [1]; 1.5 µM in assay [2]; 1.38 µM in [3]; 5.15 µM in assay [4]; 2.3 µM in assay [5]; 4.21 µM in [6]. Besides, the TGI is 5.87 µM in assay [7], 3 µM in assay [8], 1.13 µM in [9] and 9.73 µM in assay [10].
